In brackets after ≈: the same amount, converted by molar mass.
Legend:
Type in all cases: functional
[1] = Antioxidant activity assessed as ABTS radical scavenging activity at 100 ug/ml after 30 mins
[2] = Antifungal activity against Microsporum audouinii after 24 hrs by two fold dilution method
[3] = Cytotoxicity against human HeLa cells after 48 hrs by MTT assay
[4] = Cytotoxicity against human HepG2 cells after 48 hrs by MTT assay; conditions: HepG2, 48 h
[5] = Antioxidant activity assessed as reduction in AAPH free radical-induced linoleic acid peroxidation activity measured at 100 ug/ml by UV spectroscopic analysis; set-up: scale not given: the % may be the effect or the level left
Staphylococcus aureus = assay: Antibacterial activity against Staphylococcus aureus after 24 hrs by two fold dilution method
[6] = tested on: Staphylococcus epidermidis; assay: Antibacterial activity against Staphylococcus epidermidis after 24 hrs by two fold dilution method
Escherichia coli = assay: Antibacterial activity against Escherichia coli after 24 hrs by two fold dilution method
[7] = Antifungal activity against Cryptococcus neoformans after 24 hrs by two fold dilution method
[8] = Cytotoxicity against human MCF7 cells after 48 hrs by MTT assay; conditions: MCF7, 48 h
Aspergillus niger = assay: Antifungal activity against Aspergillus niger after 24 hrs by two fold dilution method
Candida albicans = assay: Antifungal activity against Candida albicans after 24 hrs by two fold dilution method
Klebsiella pneumoniae = assay: Antibacterial activity against Klebsiella pneumoniae after 24 hrs by two fold dilution method
Pseudomonas aeruginosa = assay: Antibacterial activity against Pseudomonas aeruginosa after 24 hrs by two fold dilution method

Structure (SMILES)	Activity [1]	MIC [2]	GI50 [3]	LC50 [3]	TGI [3]	GI50 [4]	LC50 [4]	TGI [4]	Activity [5]	MIC (Staphylococcus aureus)	MIC [6]	MIC (Escherichia coli)	MIC [7]	GI50 [8]	LC50 [8]	TGI [8]	MIC (Aspergillus niger)	MIC (Candida albicans)	MIC (Klebsiella pneumoniae)	MIC (Pseudomonas aeruginosa)
O=[N+]([O-])c1ccc(C(N2CCOCC2)N2C(c3ccccc3)CC(O)N2c2ccc([N+](=O)[O-])cc2[N+](=O)[O-])cc1 (configuration not stated)	58.3%	32 µg/mL (≈ 58.1 µM)	8.9 µM	43.9 µM	16.8 µM	49 µM	> 100 µM	77.3 µM	47.9%	1 µg/mL (≈ 1.82 µM)	2 µg/mL (≈ 3.63 µM)	64 µg/mL (≈ 116 µM)	32 µg/mL (≈ 58.1 µM)	20.8 µM	> 100 µM	59.3 µM	–	–	–	–
CN(C)c1ccc(C(N2CCOCC2)N2C(c3ccccc3)CC(O)N2c2ccc([N+](=O)[O-])cc2[N+](=O)[O-])cc1 (configuration not stated)	31%	> 100 µg/mL	29.2 µM	> 100 µM	57.9 µM	35.8 µM	> 100 µM	62.3 µM	29.6%	> 100 µg/mL	2 µg/mL (≈ 3.65 µM)	8 µg/mL (≈ 14.6 µM)	> 100 µg/mL	13.9 µM	> 100 µM	28.9 µM	> 100 µg/mL	2 µg/mL (≈ 3.65 µM)	64 µg/mL (≈ 117 µM)	64 µg/mL (≈ 117 µM)
O=[N+]([O-])c1ccc(N2C(O)CC(c3ccccc3)N2C(c2cncs2)N2CCOCC2)c([N+](=O)[O-])c1 (configuration not stated)	24.6%	64 µg/mL (≈ 125 µM)	37.9 µM	78.9 µM	51.9 µM	32 µM	89.3 µM	61.3 µM	21.5%	> 100 µg/mL	32 µg/mL (≈ 62.4 µM)	2 µg/mL (≈ 3.9 µM)	32 µg/mL (≈ 62.4 µM)	34 µM	> 100 µM	67.4 µM	32 µg/mL (≈ 62.4 µM)	32 µg/mL (≈ 62.4 µM)	> 100 µg/mL	64 µg/mL (≈ 125 µM)
Clc1ccccc1C(c1ccccc1)(c1ccccc1)n1ccnc1 [CLOTRIMAZOLE]	–	0.5 µg/mL (≈ 1.45 µM)	–	–	–	–	–	–	–	–	–	–	0.5 µg/mL (≈ 1.45 µM)	–	–	–	2 µg/mL (≈ 5.8 µM)	1 µg/mL (≈ 2.9 µM)	–	–
O=[N+]([O-])c1ccc(N2C(O)CC(c3ccccc3)N2C(c2ccccn2)N2CCOCC2)c([N+](=O)[O-])c1 (configuration not stated)	16.8%	> 100 µg/mL	21.6 µM	87.4 µM	54.7 µM	29.1 µM	67.5 µM	46.8 µM	51.3%	18 µg/mL (≈ 35.5 µM)	> 100 µg/mL	> 100 µg/mL	8 µg/mL (≈ 15.8 µM)	18.6 µM	52.3 µM	41.8 µM	> 100 µg/mL	8 µg/mL (≈ 15.8 µM)	4 µg/mL (≈ 7.9 µM)	32 µg/mL (≈ 63.2 µM)
COc1cccc2c1C(=O)c1c(O)c3c(c(O)c1C2=O)C[C@@](O)(C(=O)CO)C[C@@H]3O[C@H]1C[C@H](N)[C@H](O)[C@H](C)O1 [DOXORUBICIN]	–	–	0.05 µM	–	0.41 µM	0.01 µM	–	0.13 µM	–	–	–	–	–	0.02 µM	–	0.21 µM	–	–	–	–
O=[N+]([O-])c1ccc(N2C(O)CC(c3ccccc3)N2C(c2ccc3c(c2)OCO3)N2CCOCC2)c([N+](=O)[O-])c1 (configuration not stated)	34.5%	32 µg/mL (≈ 58.2 µM)	52.9 µM	> 100 µM	81.3 µM	21.3 µM	62.1 µM	41 µM	29.8%	> 100 µg/mL	> 100 µg/mL	> 100 µg/mL	64 µg/mL (≈ 116 µM)	12.9 µM	87.2 µM	45.3 µM	8 µg/mL (≈ 14.6 µM)	16 µg/mL (≈ 29.1 µM)	64 µg/mL (≈ 116 µM)	2 µg/mL (≈ 3.64 µM)
O=[N+]([O-])c1ccc(N2C(O)CC(c3ccccc3)N2C(c2ccco2)N2CCOCC2)c([N+](=O)[O-])c1 (configuration not stated)	20.7%	0.5 µg/mL (≈ 1.01 µM)	30.8 µM	80.7 µM	52.1 µM	41.4 µM	> 100 µM	64.8 µM	42.8%	20 µg/mL (≈ 40.4 µM)	16 µg/mL (≈ 32.3 µM)	64 µg/mL (≈ 129 µM)	> 100 µg/mL	32.1 µM	82 µM	56.4 µM	2 µg/mL (≈ 4.04 µM)	16 µg/mL (≈ 32.3 µM)	16 µg/mL (≈ 32.3 µM)	64 µg/mL (≈ 129 µM)
O=[N+]([O-])c1ccc(N2C(O)CC(c3ccccc3)N2C(c2ccccc2)N2CCOCC2)c([N+](=O)[O-])c1 (configuration not stated)	34.6%	–	–	> 100 µM	–	43.2 µM	> 100 µM	78.3 µM	21.8%	–	–	8 µg/mL (≈ 15.8 µM)	–	–	> 100 µM	–	> 100 µg/mL	> 100 µg/mL	> 100 µg/mL	–
CC(C)=CCC/C(C)=C\C(N1CCOCC1)N1C(c2ccccc2)CC(O)N1c1ccc([N+](=O)[O-])cc1[N+](=O)[O-] (configuration not stated)	91.3%	16 µg/mL (≈ 29 µM)	13.8 µM	71.4 µM	29.6 µM	38.1 µM	> 100 µM	69.1 µM	84.5%	> 100 µg/mL	8 µg/mL (≈ 14.5 µM)	64 µg/mL (≈ 116 µM)	32 µg/mL (≈ 58 µM)	7.8 µM	40.4 µM	21.9 µM	8 µg/mL (≈ 14.5 µM)	0.5 µg/mL (≈ 0.906 µM)	8 µg/mL (≈ 14.5 µM)	1 µg/mL (≈ 1.81 µM)
O=[N+]([O-])c1ccc(N2C(O)CC(c3ccccc3)N2C(c2c[nH]c3ccccc23)N2CCOCC2)c([N+](=O)[O-])c1 (configuration not stated)	27.8%	8 µg/mL (≈ 14.7 µM)	34.2 µM	> 100 µM	72.1 µM	15.9 µM	54.8 µM	38.2 µM	34.6%	1 µg/mL (≈ 1.84 µM)	> 100 µg/mL	> 100 µg/mL	64 µg/mL (≈ 118 µM)	24.4 µM	76.3 µM	59.3 µM	16 µg/mL (≈ 29.4 µM)	32 µg/mL (≈ 58.8 µM)	> 100 µg/mL	8 µg/mL (≈ 14.7 µM)
Cc1c(C)c2c(c(C)c1O)CCC(C)(C(=O)O)O2 (configuration not stated)	85.2%	–	–	–	–	–	–	–	62.3%	–	–	–	–	–	–	–	–	–	–	–
O=[N+]([O-])c1ccc(N2C(O)CC(c3ccccc3)N2C(c2ccc(O)cc2)N2CCOCC2)c([N+](=O)[O-])c1 (configuration not stated)	81.6%	8 µg/mL (≈ 15.3 µM)	41.3 µM	> 100 µM	87.2 µM	36.3 µM	> 100 µM	65.3 µM	75.4%	–	–	> 100 µg/mL	–	–	> 100 µM	–	> 100 µg/mL	–	8 µg/mL (≈ 15.3 µM)	15 µg/mL (≈ 28.8 µM)
O=C(O)c1cn(C2CC2)c2cc(N3CCNCC3)c(F)cc2c1=O [CIPROFLOXACIN]	–	–	–	–	–	–	–	–	–	0.5 µg/mL (≈ 1.51 µM)	4 µg/mL (≈ 12.1 µM)	–	–	–	–	–	–	–	2 µg/mL (≈ 6.04 µM)	1 µg/mL (≈ 3.02 µM)

From ChEMBL document CHEMBL3872243, “Synthesis of new morpholine-connected pyrazolidine derivatives and their antimicrobial, antioxidant, and cytotoxic activities” (2017)
